In ChEMBL document CHEMBL1124686:
The source made the active and inactive calls. No cut-off for these calls is given here.

Key:
[1] = target: D(2) dopamine receptor (Mus musculus) (UniProt P61168); test: Compound was evaluated for its ability to inhibit the potassium -induced release of [3H]- acetylcholine release in mouse striatal […] by stimulating dopamine receptor D2; details: Striatum
[2] = target: D(2) dopamine receptor (Mus musculus) (UniProt P61168); test: The dissociation constant for the inhibition of agonist effect on the K+ evoked release of [3H]- acetylcholine in mouse striatal […]; NS means No statistically significant antagonism observed in […]; format: functional
[3] = target: D(2) dopamine receptor (Mus musculus) (UniProt P61168); details: Striatum; Membrane
Description: Compound was evaluated for its ability to inhibit the potassium -induced release of [3H]- acetylcholine release in mouse striatal membranes by stimulating Dopamine receptor D2

[4] = target: D(2) dopamine receptor (Mus musculus) (UniProt P61168); test: Compound was evaluated for its ability to inhibit the potassium -induced release of [3H]- acetylcholine release in mouse striatal […] by stimulating D2 receptor; details: Striatum

Sequence of D(2) dopamine receptor (Mus musculus) (P61168 whole entry): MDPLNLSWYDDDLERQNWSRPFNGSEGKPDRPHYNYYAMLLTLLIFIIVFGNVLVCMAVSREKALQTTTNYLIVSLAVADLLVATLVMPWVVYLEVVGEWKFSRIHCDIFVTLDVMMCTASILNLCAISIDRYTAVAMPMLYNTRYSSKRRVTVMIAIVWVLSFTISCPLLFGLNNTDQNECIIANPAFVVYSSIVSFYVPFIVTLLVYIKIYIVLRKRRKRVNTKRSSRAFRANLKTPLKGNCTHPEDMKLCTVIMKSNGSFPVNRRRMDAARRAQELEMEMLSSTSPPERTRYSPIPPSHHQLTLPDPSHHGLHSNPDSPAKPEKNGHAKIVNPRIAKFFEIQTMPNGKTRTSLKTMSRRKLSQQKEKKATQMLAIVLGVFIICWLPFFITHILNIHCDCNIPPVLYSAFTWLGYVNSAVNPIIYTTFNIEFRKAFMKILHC

SMILES	ED50 [1] [nM]	further results
COc1ccc(S(N)(=O)=O)cc1C(=O)NCC1CCCS1 (stereo unspecified)	48.1	Kb [2]: inactive
CCN1CCCC1CNC(=O)c1cc(S(N)(=O)=O)ccc1OC (stereo unspecified)	–	ED50 [3]: 75.9 nM
CC[N+]1(C)CCCC1CNC(=O)c1cc(S(N)(=O)=O)ccc1OC (stereo unspecified)	25.1	–
CC[N+]1(CC)CCCC1CNC(=O)c1cc(S(N)(=O)=O)ccc1OC (stereo unspecified)	26.3	–
CC[S+]1CCCC1CNC(=O)c1cc(S(N)(=O)=O)ccc1OC (stereo unspecified)	–	ED50 [4]: 38.4 nM
